Source: the supplement of paper PMC11451515

Test system: P12-Ichikawa
Test: cell viability relative to DMSO control; higher = less cytotoxic
Details: 48 h
Procedure, shortened: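 Leukemia cells (NOMO1 or SEM, 500 cells/well; P12-Ichikawa, 1000 cells/well) were seeded in 5 μl in 1536-well plates after at least four passages of adaptation to each medium. They received library compounds in DMSO by pin dosing, 11 threefold points from 47 μM to 0.79 nM. Luminescence with CellTiter-Glo One was read after 48 h at 37°C. Viability is stated per plate relative to DMSO wells, with cell-free wells as background.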

[1] = HPLM + 10% dialyzed FBS, 0.000781 µM
[2] = HPLM + 10% dialyzed FBS, 0.00234 µM
[3] = HPLM + 10% dialyzed FBS, 0.00702 µM
[4] = HPLM + 10% dialyzed FBS, 0.0211 µM
[5] = HPLM + 10% dialyzed FBS, 0.0632 µM
[6] = HPLM + 10% dialyzed FBS, 0.19 µM
[7] = HPLM + 10% dialyzed FBS, 0.569 µM
[8] = HPLM + 10% dialyzed FBS, 1.71 µM
[9] = HPLM + 10% dialyzed FBS, 5.12 µM
[10] = HPLM + 10% dialyzed FBS, 15.4 µM
[11] = HPLM + 10% dialyzed FBS, 46.1 µM
[12] = RPMI 5 mM glucose + 10% FBS, 0.000781 µM
[13] = RPMI 5 mM glucose + 10% FBS, 0.00234 µM
[14] = RPMI 5 mM glucose + 10% FBS, 0.00702 µM
[15] = RPMI 5 mM glucose + 10% FBS, 0.0211 µM
[16] = RPMI 5 mM glucose + 10% FBS, 0.0632 µM
[17] = RPMI 5 mM glucose + 10% FBS, 0.19 µM
[18] = RPMI 5 mM glucose + 10% FBS, 0.569 µM
[19] = RPMI 5 mM glucose + 10% FBS, 1.71 µM
[20] = RPMI 5 mM glucose + 10% FBS, 5.12 µM
[21] = RPMI 5 mM glucose + 10% FBS, 15.4 µM
[22] = RPMI 5 mM glucose + 10% FBS, 46.1 µM
[23] = RPMI 5 mM glucose + 10% dialyzed FBS, 0.000781 µM
[24] = RPMI 5 mM glucose + 10% dialyzed FBS, 0.00234 µM
[25] = RPMI 5 mM glucose + 10% dialyzed FBS, 0.00702 µM
[26] = RPMI 5 mM glucose + 10% dialyzed FBS, 0.0211 µM
[27] = RPMI 5 mM glucose + 10% dialyzed FBS, 0.0632 µM
[28] = RPMI 5 mM glucose + 10% dialyzed FBS, 0.19 µM
[29] = RPMI 5 mM glucose + 10% dialyzed FBS, 0.569 µM
[30] = RPMI 5 mM glucose + 10% dialyzed FBS, 1.71 µM
[31] = RPMI 5 mM glucose + 10% dialyzed FBS, 5.12 µM
[32] = RPMI 5 mM glucose + 10% dialyzed FBS, 15.4 µM
[33] = RPMI 5 mM glucose + 10% dialyzed FBS, 46.1 µM

Molecule CN1CCN(CC1)C2=CC3=C([NH]C(=N3)C/4=C(\N)C5=C(F)C=CC=C5NC4=O)C=C2 has a cell viability [1] of 103%, a cell viability [2] of 106% and a cell viability [3] of 109%. The cell viability [4] was 99.2%, the cell viability [5] was 88.7% and the cell viability [6] was 99.7%. It also gave a cell viability [7] of 96.3%, a cell viability [8] of 95% and a cell viability [9] of 73%. The cell viability [10] was 65.5%, the cell viability [11] was 37% and the cell viability [12] was 107%. It also gave a cell viability [13] of 103%, a cell viability [14] of 111% and a cell viability [15] of 112%. The cell viability [16] was 88.8%, the cell viability [17] was 104% and the cell viability [18] was 91.9%. The cell viability [19] was 89.2%, the cell viability [20] was 60.2% and the cell viability [21] was 45.2%. The cell viability [22] was 30.4%, the cell viability [23] was 112% and the cell viability [24] was 112%. The cell viability [25] was 106%, the cell viability [26] was 107% and the cell viability [27] was 102%. For the same molecule, the cell viability [28] was 107%, the cell viability [29] was 97.8% and the cell viability [30] was 91.3%. It also gave a cell viability [31] of 67.1%, a cell viability [32] of 46.3% and a cell viability [33] of 29.4%.

c1coc(CNc2ncnc3nc[nH]c23)c1 showed a cell viability [23] of 123%, a cell viability [24] of 132% and a cell viability [25] of 116%. It also gave a cell viability [26] of 122%, a cell viability [27] of 131% and a cell viability [28] of 131%. It also gave a cell viability [29] of 130%, a cell viability [30] of 127% and a cell viability [31] of 122%. For the same molecule, the cell viability [32] was 115% and the cell viability [33] was 105%.

Molecule CCn1c(C(=O)N(C2CC2)C2CC2)cc2c3c(ncn3C)c(Nc3cc(C)n(C)n3)nc21 has a cell viability [1] of 88.3%, a cell viability [2] of 99.8% and a cell viability [3] of 99.5%. It also gave a cell viability [4] of 104%, a cell viability [5] of 109% and a cell viability [6] of 117%. For the same molecule, the cell viability [7] was 110%, the cell viability [8] was 108% and the cell viability [9] was 107%. It also gave a cell viability [10] of 107%, a cell viability [11] of 86.5% and a cell viability [12] of 92.7%. It also gave a cell viability [13] of 116%, a cell viability [14] of 108% and a cell viability [15] of 108%. For the same molecule, the cell viability [16] was 118%, the cell viability [17] was 107% and the cell viability [18] was 111%. The cell viability [19] was 110%, the cell viability [20] was 105% and the cell viability [21] was 112%. For the same molecule, the cell viability [22] was 91.7%, the cell viability [23] was 90.4% and the cell viability [24] was 100%. It also gave a cell viability [25] of 97.6%, a cell viability [26] of 96.4% and a cell viability [27] of 102%. It also gave a cell viability [28] of 97.2%, a cell viability [29] of 98% and a cell viability [30] of 98.6%. For the same molecule, the cell viability [31] was 102%, the cell viability [32] was 107% and the cell viability [33] was 87.6%.

With CCOC(=O)c1c(CSc2ccccc2)n(C)c2cc(Br)c(O)c(CN(C)C)c12 the cell viability [1] was 121%, the cell viability [2] was 119% and the cell viability [3] was 128%. It also gave a cell viability [4] of 126%, a cell viability [5] of 123% and a cell viability [6] of 127%. The cell viability [7] was 118%, the cell viability [8] was 115% and the cell viability [9] was 124%. The cell viability [10] was 115%, the cell viability [11] was 109% and the cell viability [12] was 118%. The cell viability [13] was 127%, the cell viability [14] was 122% and the cell viability [15] was 126%. For the same molecule, the cell viability [16] was 128%, the cell viability [17] was 123% and the cell viability [18] was 125%. It also gave a cell viability [19] of 112%, a cell viability [20] of 112% and a cell viability [21] of 113%. The cell viability [22] was 73.5%, the cell viability [23] was 121% and the cell viability [24] was 119%. The cell viability [25] was 125%, the cell viability [26] was 129% and the cell viability [27] was 123%. The cell viability [28] was 118%, the cell viability [29] was 127% and the cell viability [30] was 118%. For the same molecule, the cell viability [31] was 124%, the cell viability [32] was 113% and the cell viability [33] was 76.3%.

Work on NC(=O)N1CCC(CC(=O)N2CCC([C@H]3c4ncc(Br)cc4CCc4cc(Cl)cc(Br)c43)CC2)CC1 yielded a cell viability [1] of 107%, a cell viability [2] of 116% and a cell viability [3] of 114%. It also gave a cell viability [4] of 114%, a cell viability [5] of 114% and a cell viability [6] of 108%. The cell viability [7] was 96.9%, the cell viability [8] was 95.2% and the cell viability [9] was 78.6%. The cell viability [10] was 71.9%, the cell viability [11] was 52.9% and the cell viability [12] was 107%. For the same molecule, the cell viability [13] was 104%, the cell viability [14] was 125% and the cell viability [15] was 121%. It also gave a cell viability [16] of 117%, a cell viability [17] of 106% and a cell viability [18] of 87.6%. The cell viability [19] was 85.9%, the cell viability [20] was 75.4% and the cell viability [21] was 62.9%. For the same molecule, the cell viability [22] was 42.5%, the cell viability [23] was 108% and the cell viability [24] was 108%. For the same molecule, the cell viability [25] was 118%, the cell viability [26] was 112% and the cell viability [27] was 109%. It also gave a cell viability [28] of 110%, a cell viability [29] of 94.6% and a cell viability [30] of 90%. It also gave a cell viability [31] of 78.9%, a cell viability [32] of 69.7% and a cell viability [33] of 42.2%.

OC[C@H]1OC(O)C[C@@H](O)[C@@H]1O (stereo partly specified) gave a cell viability [1] of 122%, a cell viability [2] of 124% and a cell viability [3] of 114%. The cell viability [4] was 118%, the cell viability [5] was 121% and the cell viability [6] was 120%. It also gave a cell viability [7] of 115%, a cell viability [8] of 119% and a cell viability [9] of 121%. For the same molecule, the cell viability [10] was 118%, the cell viability [11] was 107% and the cell viability [12] was 119%. It also gave a cell viability [13] of 122%, a cell viability [14] of 124% and a cell viability [15] of 115%. For the same molecule, the cell viability [16] was 134%, the cell viability [17] was 119% and the cell viability [18] was 131%. The cell viability [19] was 131%, the cell viability [20] was 120% and the cell viability [21] was 116%. The cell viability [22] was 112%, the cell viability [23] was 107% and the cell viability [24] was 125%. The cell viability [25] was 119%, the cell viability [26] was 117% and the cell viability [27] was 116%. The cell viability [28] was 116%, the cell viability [29] was 119% and the cell viability [30] was 123%. The cell viability [31] was 124%, the cell viability [32] was 122% and the cell viability [33] was 110%.

In the case of N#CC1(c2cccc(C(=O)Nc3cc(Oc4ccc5nc(NC(=O)C6CC6)sc5n4)ccc3F)c2Cl)CC1, the cell viability [1] is reported as 114%, the cell viability [2] is reported as 111% and the cell viability [3] is reported as 115%. It also gave a cell viability [4] of 115%, a cell viability [5] of 112% and a cell viability [6] of 108%. For the same molecule, the cell viability [7] was 97%, the cell viability [8] was 72.8% and the cell viability [9] was 66.7%. For the same molecule, the cell viability [10] was 29%, the cell viability [11] was 21.1% and the cell viability [12] was 110%. The cell viability [13] was 114%, the cell viability [14] was 110% and the cell viability [15] was 108%. For the same molecule, the cell viability [16] was 108%, the cell viability [17] was 106% and the cell viability [18] was 81.2%. The cell viability [19] was 74.7%, the cell viability [20] was 59.3% and the cell viability [21] was 34.3%. It also gave a cell viability [22] of 13.4%, a cell viability [23] of 105% and a cell viability [24] of 113%. The cell viability [25] was 118%, the cell viability [26] was 117% and the cell viability [27] was 115%. The cell viability [28] was 115%, the cell viability [29] was 90.5% and the cell viability [30] was 69%. It also gave a cell viability [31] of 57.6%, a cell viability [32] of 38.7% and a cell viability [33] of 23.7%.

Work on CC(=O)OCC(=O)[C@@]1(O)CC[C@H]2[C@@H]3CCC/4=C/C(=O)/C=C\[C@]4(C)[C@H]3[C@@H](O)C[C@]12C yielded a cell viability [1] of 120%, a cell viability [2] of 128% and a cell viability [3] of 123%. It also gave a cell viability [4] of 126%, a cell viability [5] of 102% and a cell viability [6] of 85.3%. It also gave a cell viability [7] of 95.7%, a cell viability [8] of 72.1% and a cell viability [9] of 66.4%. For the same molecule, the cell viability [10] was 118%, the cell viability [11] was 109% and the cell viability [23] was 117%. For the same molecule, the cell viability [24] was 118%, the cell viability [25] was 121% and the cell viability [26] was 130%. The cell viability [27] was 92.5%, the cell viability [28] was 77.4% and the cell viability [29] was 100%. For the same molecule, the cell viability [30] was 50.8%, the cell viability [31] was 43.8% and the cell viability [32] was 109%. For the same molecule, the cell viability [33] was 102%.
